Patent US20150005311A1, “IP receptor agonist heterocyclic compounds” (NOVARTIS AG, priority 2012, published 2015)

molecular target: T1, IP receptor (Homo sapiens, UniProt P43119); assay: cAMP accumulation in CHO cells stably expressing the IP receptor (CHO-IP), PerkinElmer AlphaScreen assay; type: cell-based; conditions: 1 hour at room temperature, 4-parameter logistic fit
T1 construct: expressed in transfected cells; host or cells: CHO cells stably expressing the IP receptor (CHO-IP)
Method: Activity of compounds at the IP receptor (IP receptor) is assessed by measuring cAMP accumulation in CHO cells stably expressing the IP receptor (CHO-IP) using the PerkinElmer AlphaScreen assay. This technology measures the endogenous production of cAMP, in a non-radioactive luminescence proximity homogenous assay. A biological reaction occurs between streptavidin coated donor beads, biotinylated cAMP and anti-cAMP acceptor beads, bringing the donor and acceptor beads close enough together so that upon excitation a fluorescence signal is produced. On production of endogenous cAMP, competition between the biotinylated cAMP and cellular-derived cAMP causes a reduction in the fluorescent signal. The reduction in signal is proportional to the amount of cAMP being produced, thus it is possible to quantify the amount of cAMP being produced on stimulation with agonist.
Test and reference compounds are prepared at 100×[final] in 100% DMSO, and diluted 1:3 using a Biomek Fx (Beckman Coulter). This is followed by an intermediate dilution to give 5×[final] in assay buffer (HBSS containing 5 mM HEPES, 0.1% (w/v) BSA). 5 μL of 5×[final] test compounds, reference compounds and buffer/DMSO control are then transferred to a 384-well white OptiPlate, containing 20 μL CHO-IP cell suspension (15,000 cells/well, prepared from frozen), and plate is incubated at room temperature for 1 hour. A cAMP standard curve is constructed for each experiment (concentration range of 10000 nM to 0.001 nM, in assay buffer) and 25 μL of each concentration added to the last two columns of the assay plate. The incubation is terminated by the addition of lysis buffer (dH2O; 0.3% (v v^−1) Tween-20) containing 20 units mL^−1 streptavidin coated donor beads and biotinylated cAMP (pre-incubated for 30 minutes) and 20 units mL^−1 anti-cAMP acceptor beads, which are added to the lysis buffer just before addition to the assay plate. The assay plate is then incubated at room temperature in the dark, for 60 minutes with gentle shaking, and read on the Envision plate reader (Perkin Elmer).
The raw data of the reference compounds, test compounds and controls are converted into cAMP concentrations, using the cAMP standard curve, in GraphPadPrism (GraphPad Software Inc). EC50 as well as maximal values of the agonist curves are determined using a 4-parameter logistic equation. The % maximum response values of all test compounds are determined using the top of the treprostinil concentration-response curve.

T1 sequence (P43119 whole entry): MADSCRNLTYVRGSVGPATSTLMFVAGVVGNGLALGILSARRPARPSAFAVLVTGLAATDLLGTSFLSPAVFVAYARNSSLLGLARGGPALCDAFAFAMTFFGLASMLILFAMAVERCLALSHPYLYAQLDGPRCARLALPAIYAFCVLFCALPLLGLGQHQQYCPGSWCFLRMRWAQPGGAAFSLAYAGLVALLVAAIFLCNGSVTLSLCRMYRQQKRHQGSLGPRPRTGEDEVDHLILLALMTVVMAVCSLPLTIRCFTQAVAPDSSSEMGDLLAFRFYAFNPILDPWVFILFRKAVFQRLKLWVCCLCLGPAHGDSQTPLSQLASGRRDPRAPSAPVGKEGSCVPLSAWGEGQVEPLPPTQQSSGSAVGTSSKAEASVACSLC

**Q.** For `Cc1ccc(-c2nc3c(nc2-c2ccc(C)cc2)N(CCCCCCc2nnn[nH]2)CC(O)C3)cc1` (racemic) [Example 3, rac-5-(6-(1H-Tetrazol-5-yl)hexyl)-2,3-di-p-tolyl-5,6,7,8-tetrahydropyrido[2,3-b]pyrazin-7-ol], which EC50 is on record?
**A.** 0.04 nM

**Q.** `Cc1ccc(-c2nc3c(nc2-c2ccc(C)cc2)N(CCCCCc2nnn[nH]2)CC(O)C3)cc1` (racemic) [Example 4, rac-5-(5-(1H-Tetrazol-5-yl)pentyl)-2,3-di-p-tolyl-5,6,7,8-tetrahydropyrido[3,2-b]pyrazin-7-ol] was tested. Which EC50 did it give?
**A.** 5.63 nM

**Q.** Which EC50 does the source give for `Cc1ccc(-c2nc3c(nc2-c2ccc(C)cc2)N(CCCCCCc2nnn[nH]2)CC(O)C3)cc1` (single isomer, unassigned) [Example 3a, (R)- or (S)-5-(6-(1H-tetrazol-5-yl)hexyl)-2,3-di-p-tolyl-5,6,7,8-tetrahydropyrido[2,3-b]pyrazin-7-ol]] here?
**A.** 2.06 nM

**Q.** With `Cc1ccc(-c2nc3c(nc2-c2ccc(C)cc2)N(CCCCCCc2nnn[nH]2)CC(O)C3)cc1` (single isomer, unassigned) [Example 3b, (R)- or (S)-5-(6-(1H-tetrazol-5-yl)hexyl)-2,3-di-p-tolyl-5,6,7,8-tetrahydropyrido[2,3-b]pyrazin-7-ol]] as the compound, how does the EC50 read?
**A.** 1.71 nM

**Q.** Which EC50 does the source give for `Cc1ccc(-c2nc3c(nc2-c2ccc(C)cc2)N(CCCCCc2nnn[nH]2)CC(O)C3)cc1` (single isomer, unassigned) [Example 4a, (R)- or (S)-5-(5-(1H-Tetrazol-5-yl)pentyl)-2,3-di-p-tolyl-5,6,7,8-tetrahydropyrido[2,3-b]pyrazin-7-ol]] here?
**A.** 0.62 nM

**Q.** `Cc1ccc(-c2nc3c(nc2-c2ccc(C)cc2)N(CCCCCc2nnn[nH]2)CC(O)C3)cc1` (single isomer, unassigned) [Example 4b, (R)- or (S)-5-(5-(1H-Tetrazol-5-yl)pentyl)-2,3-di-p-tolyl-5,6,7,8-tetrahydropyrido[2,3-b]pyrazin-7-ol]] was tested. Which EC50 did it give?
**A.** 0.86 nM

**Q.** For `Cc1ccc(-c2nc3c(nc2-c2ccc(C)cc2)N(CCCCCCc2nnn[nH]2)CCC3)cc1` [Example 1, 5-(6-(1H-Tetrazol-5-yl)hexyl)-2,3-di-p-tolyl-5,6,7,8-tetrahydropyrido[2,3-b]pyrazine], which EC50 is on record?
**A.** 0.11 nM

**Q.** `Cc1ccc(-c2nc3c(nc2-c2ccc(C)cc2)N(CCCCCc2nnn[nH]2)CCC3)cc1` [Example 2, 5-(5-(1H-tetrazol-5-yl)pentyl)-2,3-di-p-tolyl-5,6,7,8-tetrahydropyrido[2,3-b]pyrazine] was tested. Which EC50 did it give?
**A.** 0.07 nM
